Reference: patent EP0325279A1, “Dehydrocholecalciferol derivatives” (F. HOFFMANN-LA ROCHE AG, priority 1988, dated 1989)
Several values for one entry are separate records, joined by “and”; a condition that tells them apart may be missing. Identical values can stand only once.

How the values were obtained:
Type in all cases: cell-based
[1] = system: menschlicher promyelocytischer Tumorzellen HL-60; experiment: Differentiation-inducing (DI) effect on HL-60 cells
From the text: (§1) Zum Nachweis der Aktivität der Verbindungen der Formel I als Mittel zur Behandlung von neoplastischen Krankheiten wurden die antiproliferativen (AP) und die Differenzierung induzierenden Effekte (DI) der Verbindungen A bis F sowie die Anzahl menschlicher promyelocytischer Tumorzellen HL-60 ermittelt. In Tabelle 6 ist der AP Effekt als prozentuale Reduktion der Anzahl Zellen und als Konzentration ID₅₀, die die Zellenanzahl um 50% reduziert, angegeben. Der DI Effekt ist angegeben als Prozentsatz der differenzierten Zellen und als Konzentration ED₅₀ der Verbindungen, die eine 50%ige Differenzierung der Zellen bewirkt.

[2] = system: menschlichen Keratinocyten; experiment: Number of human keratinocytes and cornified squamous cells formed in presence of compound
From the text: (§2) Die Aktivität der Verbindungen der Formel I als Mittel für die Behandlung von hyperproliferativen Hautkrankheiten kann auch durch Ermittlung der Anzahl von menschlichen Keratinocyten, von verhornten Plattenepithelzellen und von Plattenepithel-Karzinomzellenlinien (SCC-115), die sich in Gegenwart der besagten Verbindungen bilden.
(§3) Die Resultate sind in den Tabellen 4 und 5 angegeben: Tabelle 4

[3] = system: Plattenepithel-Karzinomzellenlinien (SCC-15); experiment: Number of squamous carcinoma cell line cells formed in presence of compound
From the text: as §2, §3

[4] = system: menschlicher promyelocytischer Tumorzellen HL-60; experiment: Antiproliferative (AP) effect on HL-60 cells
From the text: as §1

[5] = system: gezüchteten menschlichen Keratinocyten; experiment: Morphological differentiation of cultured human keratinocytes (cell counts by cell type)
[6] = Konzentration 0.01 (head prints x10 M)
[7] = Konzentration 0.1 (head prints x10 M)
[8] = Konzentration 1 (head prints x10 M)
[9] = Konzentration 10 (head prints x10 M)

Structure (SMILES): C=C1/C(=C\C=C2/CCC[C@]3(C)C([C@H](C)CC#CC(C)(C)O)=CC[C@@H]23)C[C@@H](O)C[C@@H]1O [Verbindung E]
- EC50 ([1]; Homo sapiens, concentration that causes 50% differentiation of the cells, read-out: ED50 (the source's name)): 1 nM
- Differenzierte Zellen (%) [1, 6]: 9%
- Differenzierte Zellen (%) [1, 7]: 50%
- Differenzierte Zellen (%) [1, 8]: 96%
- Differenzierte Zellen (%) [1, 9]: 98%
- Anzahl Keratinocten (x10⁴) ([2]; Dosis 10⁻¹² M): 187.36±15.33 x10⁴
- Anzahl verhornte Plattenepithelzellen (x10²) ([2]; Dosis 10⁻¹² M): 1136.63± 383.66 x10²
- Anzahl Keratinocten (x10⁴) ([2]; Dosis 10⁻¹⁰ M): 175.34±10.19 x10⁴
- Anzahl verhornte Plattenepithelzellen (x10²) ([2]; Dosis 10⁻¹⁰ M): 1444.87± 312.47 x10²
- Anzahl Keratinocten (x10⁴) ([2]; Dosis 10⁻⁶ M): 41.95± 7.53 x10⁴
- Anzahl verhornte Plattenepithelzellen (x10²) ([2]; Dosis 10⁻⁶ M): 1916.83± 887.66 x10²
- Anzahl Keratinocten (x10⁴) ([2]; Dosis 10⁻⁸ M): 145.79±15.66 x10⁴
- Anzahl verhornte Plattenepithelzellen (x10²) ([2]; Dosis 10⁻⁸ M): 2113.62±1049.33 x10²
- Anzahl Zellenlinien (SCC-15) (x10⁵) ([3]; Dosis 10⁻¹² M): 6.98±1.68 x10⁵
- Anzahl Zellenlinien (SCC-15) (x10⁵) ([3]; Dosis 10⁻¹⁰ M): 5.89±1.58 x10⁵
- Anzahl Zellenlinien (SCC-15) (x10⁵) ([3]; Dosis 10⁻⁶ M): 0.40±0.98 x10⁵ and 0.49±0.13 x10⁵
- Anzahl Zellenlinien (SCC-15) (x10⁵) ([3]; Dosis 10⁻⁸ M): 5.76±1.53 x10⁵
- IC50 ([4]; Homo sapiens, concentration that reduces the cell number by 50%, read-out: ID50 (the source's name)): 0.7 nM
- % Reduktion der Anzahl Zellen [4, 6]: 6%
- % Reduktion der Anzahl Zellen [4, 7]: 59%
- % Reduktion der Anzahl Zellen [4, 8]: 80%
- % Reduktion der Anzahl Zellen [4, 9]: 81%
- Anzahl Zellen (x10⁴): Basalzellen ([5]; Dosis 10⁻¹⁰ M): 63±2 x10⁴
- Anzahl Zellen (x10⁴): Gesamtanzahl ([5]; Dosis 10⁻¹⁰ M): 86±4 x10⁴
- Anzahl Zellen (x10⁴): Plattenepithelzellen ([5]; Dosis 10⁻¹⁰ M): 23±2 x10⁴
- Anzahl Zellen (x10⁴): verhornte Plattenepithelzellen ([5]; Dosis 10⁻¹⁰ M): 114±5 x10⁴
- Anzahl Zellen (x10⁴): Basalzellen ([5]; Dosis 10⁻⁶ M): 41±1 x10⁴
- Anzahl Zellen (x10⁴): Gesamtanzahl ([5]; Dosis 10⁻⁶ M): 78±3 x10⁴
- Anzahl Zellen (x10⁴): Plattenepithelzellen ([5]; Dosis 10⁻⁶ M): 27±2 x10⁴
- Anzahl Zellen (x10⁴): verhornte Plattenepithelzellen ([5]; Dosis 10⁻⁶ M): 147±4 x10⁴
- Anzahl Zellen (x10⁴): Basalzellen ([5]; Dosis 10⁻⁸ M): 53±2 x10⁴
- Anzahl Zellen (x10⁴): Gesamtanzahl ([5]; Dosis 10⁻⁸ M): 82±3 x10⁴
- Anzahl Zellen (x10⁴): Plattenepithelzellen ([5]; Dosis 10⁻⁸ M): 29±1 x10⁴
- Anzahl Zellen (x10⁴): verhornte Plattenepithelzellen ([5]; Dosis 10⁻⁸ M): 141±5 x10⁴
